pIC50: −log10 of the molar value.
Key:
[1] = test system: replication defective HIV generated by 8e5 cells; assay: p24 production by 8e5 cells (p24 capture ELISA of cell lysates); type: cell-based, HIV; human T-cell line 8e5; settings: for inhibiting p24 production (in words): summary of Table 3; for inhibition / p24 production: range over experiments
Description: The effect of several phosphorothioate antisense oligonucleotides on HIV replication was determined by measuring p24 (an HIV-specific polypeptide) produced by 8e5 cells. The 8e5 cell line is a human T-cell line that generates replication defective HIV (Folks et al. U.S. Pat. No. 4,752,565). The defective HIV contains a single integrated provirus that expresses all HIV proteins at levels typically observed in chronically infected cell lines except those encoded by pol. This defect is due to a single base insertion that causes a frame shift mutation in pol.
Oligonucleotides having phosphorothioate linkages were synthesized according to Bhatt supra. Synthesized oligonucleotides were purified using HPLC, extracted with ethyl acetate, ethanol precipitated, washed with 80% ethanol and suspended in sterile water to generate high concentration stock solutions that facilitated small volume addition (2-20 μl).
Phosphorothioate antisense oligonucleotides were added directly to 8e5 cultures. Sterile water and non-specific phosphorothioate oligonucleotides were utilized as controls. The cultures were harvested after 4 days, and the viable cell count and production of p24 antigen were determined. Cell lysates were prepared by spinning down cells from 2 ml wells at 1000 rpm for 10 minutes at 4° C. using a Beckman J-10, and removing the supernatant. The cells were then washed with 5 ml of Hanks balanced salt solution (Gibco) or sterile saline solution (0.9% NaCl), and spun down at 1000 rpm for 10 minutes at 4° C. using a Beckman J-10. The cells were resuspended in 300 μl of TSM (10 mM Tris-HCl pH 7.5, 150 mM NaCl, 2 MM MgCl2) with 0.5% NP-40, and incubated on ice for 5 minutes. The nuclei and cellular debris were then spun down at 2000 rpm using a Beckman J-10. The amount of p24 antigen was determined in cell lysates using a p24 capture ELISA (American Biotechnologies, Inc.).
The ELISA assay for p24 was selected as a measure of HIV replication because expression of tat and rev are required for efficient p24 production. The percentage of HIV p24 production was calculated as p24/cell production by antisense treated cells divided by p24/cell production by control treated cells. Control treated cells were treated with a random control phosphorothioate oligonucleotide (SEQ. ID. NO. 47: AGGCTTCATCACGTGGACATTGACG).

human bone marrow cells = assay: Cytotoxicity: colony formation of human bone marrow cells; type: cell-based; settings: agar medium with G-CSF, eight days in culture
Description: The cytotoxicity of the test oligonucleotides was determined in a system using primary human blood cells using techniques known to those of skill in the art to measure cytotoxicity of anti-neoplastic agents. Human bone marrow cells were harvested and washed in an isotonic solution, then incubated in tissue culture medium containing 0.3% (w/v) agar, 20% (v/v) fetal calf serum, and 10 ng/ml granulocyte-colony stimulating factor with varying amounts of the two test oligonucleotides. The number of colonies formed were measured after eight days in culture. The IC50 for colony formation in this experiment was 2-3 μM for SEQ. ID. NO: 18 and 20-30 μM for SEQ. ID. NO: 22.

HIV-1 (LAI) [2] = assay: p24 assay, PBMC infected with HIV-1 (LAI); type: cell-based, HIV-1; PBMC
HIV-1 (LAI) [3] = assay: Plaque assay, HeLa-CD4 cells infected with HIV-1 (LAI); type: cell-based, HIV-1; HeLa-CD4 cells; settings: HeLa-CD4, HIV-1 (LAI), plaques formed
Description: (§1) HeLa-CD4 cells were tested using a plaque assay as described below. Specific cells (as described in Table 4) were detached using trypsin-EDTA for 8-10 minutes at 37° C. The cells were then centrifuged at 100 rpm for 10 minutes. Cells were resuspended in 5-10 ml of maintenance medium (Dulbecco's Modified Eagle Medium ("DMEM") containing 10% fetal calf serum, […], […], and 2 mM glutamine). Cells were maintained by splitting the culture once weekly into two 75 cm^2 T-flasks at a concentration of 3×10^4 cells/ml in a total volume of […] maintenance medium.
(§2) On day 0, the cells were plated into the wells of a 24 well tissue culture plate (Falcon #3047) at a concentration of 2.4×10^4 cells per well. The cells were incubated overnight at 37° C. The next day the medium was aspirated, and 200 μl of HIV virus at a multiplicity of infection ("MOI") of 0.03 was added to each well. The plates were then incubated for 2 hours at 37° C. After the 2 hour incubation, the cells were treated with 800 μl of drug at a concentration (in DMEM) of 1.25× of the final concentration.
(§3) The treated cells were incubated for 3 days at 37° C. On day 4 the plate was fixed with 1 ml/well of 100% methanol for 15 minutes. The wells were then aspirated and 0.5 ml of 0.3% crystal violet stain was added to the wells. […] Plaques were counted using a microscope. […]

[4] = In vivo mouse study: blood parameters, body weight and organ morphology; settings: mice, 100 mg/kg
Description: In vivo experiments were also performed using rodent models. These experiments focused on the potential for gross morphological changes in blood tissue upon administration of a phosphorothioate linked oligonucleotide having the nucleic acid sequence of SEQ. ID. NO: 18 (in a solution of PBS). Three mice were given the oligonucleotide at a dose of 100 mg/kg body weight. Four control mice were given PBS alone. Blood samples were taken from each animal at t=0, and at 24 hours each animal was sacrificed and the organs removed. The experimental findings with regard to blood parameters are shown in Table 5, and the results obtained upon visual inspection of the organs are shown in Table 6.

[5] = test system: HIV patient isolates (PO22); assay: Plaque assay, HeLa-CD4 cells infected with patient isolates (PO22); type: cell-based, HIV; HeLa-CD4 cells; settings: plaques formed
Description: as §1, §2, §3

[6] = test system: HIV patient isolates (AO18); assay: Plaque assay, HeLa-CD4 cells infected with patient isolates (AO18); type: cell-based, HIV; HeLa-CD4 cells; settings: plaques formed
Description: as §1, §2, §3

HIV-2 (ROD) = assay: Plaque assay, HeLa-CD4 cells infected with HIV-2 (ROD); type: cell-based, HIV-2; HeLa-CD4 cells; settings: HeLa-CD4, HIV-2 (ROD), plaques formed
Description: as §1, §2, §3

[7] = 20 μM, Table 3 (small length oligonucleotides)
[8] = 2 μM, 4 days, Table 2, relative to cells treated with random control oligonucleotide SEQ. ID. NO. 47
[9] = 10 μM, 4 days, Table 2, relative to cells treated with random control oligonucleotide SEQ. ID. NO. 47
[10] = 10 μM, Table 3 (small length oligonucleotides)

Compound: CTGTCGGGTC CCCTCGGG (CTGTCGGGTCCCCTCGGG; chemistry not given here) [SEQ. ID. NO. 26]
- % p24 production [1, 7]: 44%
- inhibiting p24 production (in words) [1]: particularly effective

Compound: ATTGGTACAAGCAGTTTTAGGCT (ATTGGTACAAGCAGTTTTAGGCT; chemistry not given here) [SEQ. ID. NO. 31]
- % p24 production [1, 8]: 100%
- % p24 production [1, 9]: 15%

Compound: GCTTCTTCCTGCCATAGGAGA (GCTTCTTCCTGCCATAGGAGA; chemistry not given here) [SEQ. ID. NO. 33]
- % p24 production [1, 8]: 109%
- % p24 production [1, 9]: 74%

Compound: GCCTGTCGGG TCCT (GCCTGTCGGGTCCT; chemistry not given here) [SEQ. ID. NO. 20]
- % p24 production [1, 10]: 55%
- % p24 production [1, 7]: 42%
- inhibiting p24 production (in words) [1]: particularly effective

Compound: GGGCCTGTCGGGTCCCCTCGGG (GGGCCTGTCGGGTCCCCTCGGG; chemistry not given here) [SEQ. ID. NO. 29]
- % p24 production [1, 10]: 79%
- % p24 production [1, 7]: 58%
- inhibiting p24 production (in words) [1]: particularly effective

Compound: CGGGCCTGTCGGGTCCCCTCGGGA (CGGGCCTGTCGGGTCCCCTCGGGA; chemistry not given here) [SEQ. ID. NO. 36]
- % p24 production [1, 8]: 71%
- % p24 production [1, 9]: 89%

Compound: GCCTGTCGGG TCCC (GCCTGTCGGGTCCC; chemistry not given here) [SEQ. ID. NO. 22]
- % p24 production [1, 10]: 3%
- % p24 production [1, 7]: 31%
- inhibiting p24 production (in words) [1]: particularly effective
- pIC50 (human bone marrow cells): 4.52 to 4.70

Compound: CTTCGGGCCTGTCGGGTCCCCTCGGG (CTTCGGGCCTGTCGGGTCCCCTCGGG; chemistry not given here) [SEQ. ID. NO. 18]
- pIC50 (HIV-1 (LAI) [2]): 6.92
- % p24 production [1, 8]: 55%
- % p24 production [1, 9]: 0%
- inhibition [1]: 70-100%
- p24 production [1]: 0 to 30%
- pIC50 (HIV-1 (LAI) [3]): 6.70
- HGB ([4]; 0 hr): 16.0 ± 0.2 g/dL
- PLT ([4]; 0 hr): 111.8 ± 2.7 ×10^4 /μl
- RBC ([4]; 0 hr): 1032.3 ± 8.1 ×10^4 /μl
- WBC ([4]; 0 hr): 94.7 ± 18.2 ×10^2 /μl
- Body Weight ([4]; 24 hours): Unchanged
- Morphological findings, Bone Marrow ([4]; 24 hours, visual inspection): Normal
- Morphological findings, Heart ([4]; 24 hours, visual inspection): Normal
- Morphological findings, Kidney ([4]; 24 hours, visual inspection): Normal
- Morphological findings, Liver ([4]; 24 hours, visual inspection): Normal
- Morphological findings, Spleen ([4]; 24 hours, visual inspection): Slight Splenomegaly
- Morphological findings, Thymus ([4]; 24 hours, visual inspection): Normal
- HGB ([4]; 24 hr): 15.3 ± 0.5 g/dL
- PLT ([4]; 24 hr): 99.4 ± 0.9 ×10^4 /μl
- RBC ([4]; 24 hr): 990.3 ± 34.3 ×10^4 /μl
- WBC ([4]; 24 hr): 79.3 ± 15.3 ×10^2 /μl
- pIC50 ([5]; AZT Resistant): 7.74
- pIC50 ([5]; AZT Sensitive): 7.35
- pIC50 ([6]; AZT Resistant): 7.26
- pIC50 ([6]; AZT Sensitive): 7.10
- pIC50 (HIV-2 (ROD)): 7.74
- pIC50 (human bone marrow cells): 5.52 to 5.70

Compound: TTGGGAGGTG GGTTGCTTTG (TTGGGAGGTGGGTTGCTTTG; chemistry not given here) [SEQ. ID. NO. 14]
- % p24 production [1, 8]: 103%
- % p24 production [1, 9]: 66%

Compound: GCCTATTCTGCTATGTCGACACCCAA (GCCTATTCTGCTATGTCGACACCCAA; chemistry not given here) [SEQ. ID. NO. 35]
- % p24 production [1, 8]: 56%
- % p24 production [1, 9]: 0%
- inhibition [1]: 70-100%
- p24 production [1]: 0 to 30%

Compound: ATTCTGCTATGTCGACACCCAA (ATTCTGCTATGTCGACACCCAA; chemistry not given here) [SEQ. ID. NO. 46]
- % p24 production [1, 10]: 87%
- % p24 production [1, 7]: 81%
- inhibiting p24 production (in words) [1]: effective

Compound: GAGCTCTTCGTCGCTGTCTCCGCTTCT (GAGCTCTTCGTCGCTGTCTCCGCTTCT; chemistry not given here) [SEQ. ID. NO. 17]
- % p24 production [1, 8]: 99%
- % p24 production [1, 9]: 56%

Compound: Cc1cn([C@H]2C[C@H](N=[N+]=[N-])[C@@H](CO)O2)c(=O)[nH]c1=O [AZT, reference compound]
- pIC50 (HIV-1 (LAI) [2]; Human immunodeficiency virus 1): 8.52
- pIC50 (HIV-1 (LAI) [3]; Human immunodeficiency virus 1): 7.70 to 8.15

From US5919701A, “Oligonucleotides with activity against human immunodeficiency virus” (priority 1997, dated 1999)
